Source: US10721934B2, “Enhanced preservative” (Arch Chemicals, Inc., priority 2013, dated 2020)

Tests used:
Type in all cases: cell-based
[1] = tested on: Pseudomonas aeruginosa ATCC 15442; assay: Minimum Inhibitory Concentration (MIC) test, 96 well microtiter plate; settings: single chemical
Protocol: Microorganisms: Pseudomonas aeruginosa ATCC 15442
(§1) MIC set up: A 96 well microtiter plate Minimum Inhibitory Concentration (MIC) test was run in broth suitable for the test organism. Serially diluted actives were prepared in sterilized water, and the start-up concentration varied depending on the efficacy range. Inocula prepared in 2× suitable broth was added into each well, and the final concentrations of bacteria were adjusted to approximately 5×10^5.

[2] = tested on: Candida albicans; assay: MIC test, 96 well microtiter plate; settings: single chemical
Protocol: as §1
(§2) Further MIC tests were conducted using different amine compounds in combination with a pyrithione and two different isothiazolinones. The procedures described in Example No. 1 were used.

[3] = tested on: Aureobasidium pullulans; assay: MIC test, 96 well microtiter plate; settings: single chemical
Protocol: as §1, §2

[4] = tested on: Staphylococcus aureus; assay: MIC test, 96 well microtiter plate; settings: single chemical
Protocol: as §1, §2

[5] = tested on: Aspergillus brasiliensis; assay: MIC test, 96 well microtiter plate; settings: single chemical
Protocol: as §1, §2

[6] = tested on: Escherichia coli; assay: MIC test, 96 well microtiter plate; settings: single chemical
Protocol: as §1, §2

[7] = tested on: mixed bacterial inoculum (Pseudomonas aeruginosa, Enterobacter cloacae, Escherichia coli, Acinetobacter calcoaceticus); assay: Repeated inoculation of standard acrylic paint, streak plate rating
Protocol: In the following experiments, a pyrithione, an isothiazolinone, and a biocide enhancing agent in accordance with the present disclosure were combined with a standard acrylic paint. The concentrations of the pyrithione, the isothiazolinone and the biocide enhancing agent were varied. The pyrithione, the isothiazolinone and the biocide enhancing agent were added alone and in various mixtures to the standard acrylic paint.
The acrylic paint was then inoculated three times using a mixed bacterial inoculum. The bacterial inoculum, which comprised a bacterial suspension in water, contained the following four bacteria in equal proportions.
The samples were streak plated at 24, 48, and 72 hours after inoculation. The streak plates were rated as follows;

In the case of `O=c1[nH]sc2ccccc12` [BIT, 1,2 Benzisothiazolin-3-one], the “Minimum Inhibitory Concentration” value [1] is reported as 32.5 ppm, the “Minimum Inhibitory Concentration” value [2] is reported as 8.1 ppm and the “Minimum Inhibitory Concentration” value [3] is reported as 4.1 ppm. For the same compound, the “Minimum Inhibitory Concentration” value [4] was 8.1 ppm, the “Minimum Inhibitory Concentration” value [5] was 32.5 ppm and the “Minimum Inhibitory Concentration” value [6] was 6.1 ppm. The streak plate rating ([7]; Set Five, BIT 50 ppm, 1st inoculation 24 h) was 5 (>45 viable microorganisms Severely contaminated), the streak plate rating ([7]; Set Five, BIT 50 ppm, 1st inoculation 48 h) was 5 (>45 viable microorganisms Severely contaminated) and the streak plate rating ([7]; Set Five, BIT 50 ppm, 1st inoculation 72 h) was 5 (>45 viable microorganisms Severely contaminated). For the same compound, the streak plate rating ([7]; Set Five, BIT 50 ppm, 2nd inoculation 24 h) was 5 (>45 viable microorganisms Severely contaminated), the streak plate rating ([7]; Set Five, BIT 50 ppm, 2nd inoculation 48 h) was 5 (>45 viable microorganisms Severely contaminated) and the streak plate rating ([7]; Set Five, BIT 50 ppm, 2nd inoculation 72 h) was 5 (>45 viable microorganisms Severely contaminated). The streak plate rating ([7]; Set Five, BIT 50 ppm, 3rd inoculation 24 h) was 5 (>45 viable microorganisms Severely contaminated), the streak plate rating ([7]; Set Five, BIT 50 ppm, 3rd inoculation 48 h) was 5 (>45 viable microorganisms Severely contaminated) and the streak plate rating ([7]; Set Five, BIT 50 ppm, 3rd inoculation 72 h) was 5 (>45 viable microorganisms Severely contaminated). The streak plate rating ([7]; Set Four, BIT 50 ppm, 1st inoculation 24 h) was 5 (>45 viable microorganisms Severely contaminated), the streak plate rating ([7]; Set Four, BIT 50 ppm, 1st inoculation 48 h) was 5 (>45 viable microorganisms Severely contaminated) and the streak plate rating ([7]; Set Four, BIT 50 ppm, 1st inoculation 72 h) was 5 (>45 viable microorganisms Severely contaminated). For the same compound, the streak plate rating ([7]; Set Four, BIT 50 ppm, 2nd inoculation 24 h) was 5 (>45 viable microorganisms Severely contaminated), the streak plate rating ([7]; Set Four, BIT 50 ppm, 2nd inoculation 48 h) was 5 (>45 viable microorganisms Severely contaminated) and the streak plate rating ([7]; Set Four, BIT 50 ppm, 2nd inoculation 72 h) was 5 (>45 viable microorganisms Severely contaminated). For the same compound, the streak plate rating ([7]; Set Four, BIT 50 ppm, 3rd inoculation 24 h) was 5 (>45 viable microorganisms Severely contaminated), the streak plate rating ([7]; Set Four, BIT 50 ppm, 3rd inoculation 48 h) was 5 (>45 viable microorganisms Severely contaminated) and the streak plate rating ([7]; Set Four, BIT 50 ppm, 3rd inoculation 72 h) was 5 (>45 viable microorganisms Severely contaminated). For the same compound, the streak plate rating ([7]; Set One, BIT 60 ppm, 1st inoculation 24 h) was 5 (>45 viable microorganisms Severely contaminated), the streak plate rating ([7]; Set One, BIT 60 ppm, 1st inoculation 48 h) was 5 (>45 viable microorganisms Severely contaminated) and the streak plate rating ([7]; Set One, BIT 60 ppm, 1st inoculation 72 h) was 5 (>45 viable microorganisms Severely contaminated). The streak plate rating ([7]; Set One, BIT 60 ppm, 2nd inoculation 24 h) was 5 (>45 viable microorganisms Severely contaminated), the streak plate rating ([7]; Set One, BIT 60 ppm, 2nd inoculation 48 h) was 5 (>45 viable microorganisms Severely contaminated) and the streak plate rating ([7]; Set One, BIT 60 ppm, 3rd inoculation 24 h) was 5 (>45 viable microorganisms Severely contaminated). The streak plate rating ([7]; Set One, BIT 60 ppm, 3rd inoculation 48 h) was 5 (>45 viable microorganisms Severely contaminated), the streak plate rating ([7]; Set One, BIT 60 ppm, 3rd inoculation 72 h) was 5 (>45 viable microorganisms Severely contaminated) and the streak plate rating ([7]; Set One, BIT 120 ppm, 1st inoculation 24 h) was 1 (1-5 viable microorganisms Very lightly contaminated). The streak plate rating ([7]; Set One, BIT 120 ppm, 1st inoculation 48 h) was 3 (16-30 viable microorganisms Moderately contaminated), the streak plate rating ([7]; Set One, BIT 120 ppm, 1st inoculation 72 h) was 3 (16-30 viable microorganisms Moderately contaminated) and the streak plate rating ([7]; Set One, BIT 120 ppm, 2nd inoculation 24 h) was 5 (>45 viable microorganisms Severely contaminated). The streak plate rating ([7]; Set One, BIT 120 ppm, 2nd inoculation 48 h) was 5 (>45 viable microorganisms Severely contaminated), the streak plate rating ([7]; Set One, BIT 120 ppm, 3rd inoculation 24 h) was 5 (>45 viable microorganisms Severely contaminated) and the streak plate rating ([7]; Set One, BIT 120 ppm, 3rd inoculation 48 h) was 5 (>45 viable microorganisms Severely contaminated). For the same compound, the streak plate rating ([7]; Set One, BIT 120 ppm, 3rd inoculation 72 h) was 5 (>45 viable microorganisms Severely contaminated), the streak plate rating ([7]; Set Three, BIT 50 ppm, 1st inoculation 24 h) was 5 (>45 viable microorganisms Severely contaminated) and the streak plate rating ([7]; Set Three, BIT 50 ppm, 1st inoculation 48 h) was 5 (>45 viable microorganisms Severely contaminated). For the same compound, the streak plate rating ([7]; Set Three, BIT 50 ppm, 1st inoculation 72 h) was 5 (>45 viable microorganisms Severely contaminated), the streak plate rating ([7]; Set Three, BIT 50 ppm, 2nd inoculation 24 h) was 5 (>45 viable microorganisms Severely contaminated) and the streak plate rating ([7]; Set Three, BIT 50 ppm, 2nd inoculation 48 h) was 5 (>45 viable microorganisms Severely contaminated). The streak plate rating ([7]; Set Three, BIT 50 ppm, 2nd inoculation 72 h) was 5 (>45 viable microorganisms Severely contaminated), the streak plate rating ([7]; Set Three, BIT 50 ppm, 3rd inoculation 24 h) was 5 (>45 viable microorganisms Severely contaminated) and the streak plate rating ([7]; Set Three, BIT 50 ppm, 3rd inoculation 48 h) was 5 (>45 viable microorganisms Severely contaminated). For the same compound, the streak plate rating ([7]; Set Three, BIT 50 ppm, 3rd inoculation 72 h) was 5 (>45 viable microorganisms Severely contaminated), the streak plate rating ([7]; Set Two, BIT 25 ppm, 1st inoculation 24 h) was 5 (>45 viable microorganisms Severely contaminated) and the streak plate rating ([7]; Set Two, BIT 25 ppm, 1st inoculation 48 h) was 5 (>45 viable microorganisms Severely contaminated). The streak plate rating ([7]; Set Two, BIT 25 ppm, 1st inoculation 72 h) was 5 (>45 viable microorganisms Severely contaminated), the streak plate rating ([7]; Set Two, BIT 25 ppm, 2nd inoculation 24 h) was 5 (>45 viable microorganisms Severely contaminated) and the streak plate rating ([7]; Set Two, BIT 25 ppm, 2nd inoculation 48 h) was 5 (>45 viable microorganisms Severely contaminated). The streak plate rating ([7]; Set Two, BIT 25 ppm, 2nd inoculation 72 h) was 5 (>45 viable microorganisms Severely contaminated), the streak plate rating ([7]; Set Two, BIT 25 ppm, 3rd inoculation 24 h) was 5 (>45 viable microorganisms Severely contaminated) and the streak plate rating ([7]; Set Two, BIT 25 ppm, 3rd inoculation 48 h) was 5 (>45 viable microorganisms Severely contaminated). For the same compound, the streak plate rating ([7]; Set Two, BIT 25 ppm, 3rd inoculation 72 h) was 5 (>45 viable microorganisms Severely contaminated), the streak plate rating ([7]; Set Two, BIT 50 ppm, 1st inoculation 24 h) was 5 (>45 viable microorganisms Severely contaminated) and the streak plate rating ([7]; Set Two, BIT 50 ppm, 1st inoculation 48 h) was 5 (>45 viable microorganisms Severely contaminated). For the same compound, the streak plate rating ([7]; Set Two, BIT 50 ppm, 1st inoculation 72 h) was 5 (>45 viable microorganisms Severely contaminated), the streak plate rating ([7]; Set Two, BIT 50 ppm, 2nd inoculation 24 h) was 5 (>45 viable microorganisms Severely contaminated) and the streak plate rating ([7]; Set Two, BIT 50 ppm, 2nd inoculation 48 h) was 5 (>45 viable microorganisms Severely contaminated). For the same compound, the streak plate rating ([7]; Set Two, BIT 50 ppm, 2nd inoculation 72 h) was 5 (>45 viable microorganisms Severely contaminated), the streak plate rating ([7]; Set Two, BIT 50 ppm, 3rd inoculation 24 h) was 5 (>45 viable microorganisms Severely contaminated) and the streak plate rating ([7]; Set Two, BIT 50 ppm, 3rd inoculation 48 h) was 5 (>45 viable microorganisms Severely contaminated). For the same compound, the streak plate rating ([7]; Set Two, BIT 50 ppm, 3rd inoculation 72 h) was 5 (>45 viable microorganisms Severely contaminated).
